According to patent US20230295157A1, “3-(1H-IMIDAZOL-2-YL)-2,3,8,8A-TETRAHYDROINDOLIZIN-5(1H)-ONE DERIVATIVES USEFUL AS FACTOR XIA INHIBITORS” (JANSSEN PHARMACEUTICA NV, priority 2020, published 2023):

Experiments:
[1] = molecular target: human plasma kallikrein (Homo sapiens (Human), UniProt P03952); assay: Kallikrein inhibition assay (FLINT) utilizing a quenched AMC peptide substrate; type: biochemical; settings: 30 min preincubation, kinetic reads over 30 min, Z-Gly-Pro-Arg-AMC substrate 50 μM; read-out: Kallikrein Kin Inh IC50
Method in brief: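 Fluorogenic Z-Gly-Pro-Arg-AMC cleavage (50 μM substrate, 2 nM kallikrein, Tris pH 7.5, CaCl2, BSA, CHAPS, 2% DMSO) read kinetically at 340/440 nm for 30 min after 30-min compound pre-incubation. Compounds in 11-point 3-fold series from 1 μM; percent inhibition fitted to four-parameter equation for IC50.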

[2] = molecular target: Factor XIa (Homo sapiens (Human), UniProt P03951); assay: Factor XIa inhibition assay (FLINT) utilizing a fluorophore-quencher pair peptide substrate; type: biochemical; settings: 30 min preincubation, kinetic reads over 30 min, 5Fam-KLTRAETV-K5Tamra substrate 15 μM; read-out: FXIa Kin Inh IC50
Method in brief: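 FXIa ([…]) preincubated 30 min with compound (11-point 3-fold dilution, top 100 nM, 2% DMSO), then 15 μM quenched FXI Arg146-based peptide added; Tris pH 7.5, CaCl2, BSA, CHAPS. Fluorescence 485/520 nm read kinetically every 5 min over 30 min at RT; IC50 by 4-parameter fit.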

Sequence of human plasma kallikrein (P03952 391-638): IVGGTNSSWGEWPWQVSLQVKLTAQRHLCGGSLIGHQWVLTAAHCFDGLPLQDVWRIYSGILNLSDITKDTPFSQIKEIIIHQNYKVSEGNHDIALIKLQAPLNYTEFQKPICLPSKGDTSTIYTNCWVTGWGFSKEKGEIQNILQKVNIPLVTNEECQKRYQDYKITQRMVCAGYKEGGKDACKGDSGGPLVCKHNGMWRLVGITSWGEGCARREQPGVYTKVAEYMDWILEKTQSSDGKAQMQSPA
Sequence of human plasma kallikrein (P03952 20-390 partner): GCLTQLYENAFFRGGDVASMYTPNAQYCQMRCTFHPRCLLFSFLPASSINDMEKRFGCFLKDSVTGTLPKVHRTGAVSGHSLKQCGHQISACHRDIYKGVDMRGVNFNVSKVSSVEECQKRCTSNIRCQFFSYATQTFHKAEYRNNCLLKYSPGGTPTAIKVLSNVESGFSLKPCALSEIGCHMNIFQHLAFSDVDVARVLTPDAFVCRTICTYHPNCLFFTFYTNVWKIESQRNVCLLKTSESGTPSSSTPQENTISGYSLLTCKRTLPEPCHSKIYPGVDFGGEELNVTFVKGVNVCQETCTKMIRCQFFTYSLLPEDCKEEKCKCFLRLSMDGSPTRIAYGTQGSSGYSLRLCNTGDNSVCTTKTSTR
Sequence of Factor XIa (P03951 388-625): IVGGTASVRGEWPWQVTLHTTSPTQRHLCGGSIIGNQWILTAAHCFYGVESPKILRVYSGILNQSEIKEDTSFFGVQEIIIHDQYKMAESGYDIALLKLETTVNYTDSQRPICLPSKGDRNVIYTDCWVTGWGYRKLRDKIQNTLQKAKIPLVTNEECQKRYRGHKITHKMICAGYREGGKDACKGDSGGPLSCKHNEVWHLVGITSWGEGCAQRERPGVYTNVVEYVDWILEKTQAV
Sequence of Factor XIa (P03951 19-387 partner): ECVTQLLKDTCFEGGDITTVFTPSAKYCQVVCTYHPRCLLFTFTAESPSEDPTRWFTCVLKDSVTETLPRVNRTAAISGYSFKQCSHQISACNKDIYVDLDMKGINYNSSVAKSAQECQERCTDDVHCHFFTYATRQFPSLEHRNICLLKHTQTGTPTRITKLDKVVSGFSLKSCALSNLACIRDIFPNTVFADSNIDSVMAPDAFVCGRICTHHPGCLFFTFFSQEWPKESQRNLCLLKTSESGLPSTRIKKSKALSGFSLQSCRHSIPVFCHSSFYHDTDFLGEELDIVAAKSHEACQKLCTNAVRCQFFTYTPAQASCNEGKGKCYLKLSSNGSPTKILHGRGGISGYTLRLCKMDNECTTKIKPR

SMILES	IC50 [1] [nM]	IC50 [2] [nM]
O=C1C=C(c2c(-n3cnnn3)ccc(Cl)c2F)C[C@H]2CC[C@@H](c3nc(-c4ncc(CO)s4)c[nH]3)N12 [Example 39, (3S,8aR)-7-(3-Chloro-2-fluoro-6-(1H-tetrazol-1-yl)phenyl)-3-(4-(5-(hydroxymethyl)thiazol-2-yl)-1H-imidazol-2-yl)-2,3,8,8a-tetrahydroindolizin-5(1H)-one]	136	95.6
COC(=O)Nc1nccc(-c2[nH]c([C@@H]3CC[C@@H]4CC(c5c(-n6cnnn6)ccc(Cl)c5F)=CC(=O)N43)nc2F)c1F [Example 40, Methyl N-[4-[2-[(3S,8aR)-7-[3-chloro-2-fluoro-6-(tetrazol-1-yl)phenyl]-5-oxo-2,3,8,8a-tetrahydro-1H-indolizin-3-yl]-4-fluoro-1H-imidazol-5-yl]-3-fluoro-2-pyridyl]carbamate]	6.4	0.8
O=C1C=C(c2c(-n3cnnn3)ccc(Cl)c2F)C[C@H]2CC[C@@H](c3nc(-c4cnc5[nH]ncc5c4)c[nH]3)N12 [Example 41, (3S,8aR)-3-(4-(1H-pyrazolo[3,4-b]pyridin-5-yl)-1H-imidazol-2-yl)-7-(3-chloro-2-fluoro-6-(1H-tetrazol-1-yl)phenyl)-2,3,8,8a-tetrahydroindolizin-5(1H)-one]	54.2	44.7
O=C1C=C(c2c(-n3cnnn3)ccc(Cl)c2F)C[C@H]2CC[C@@H](c3nc(-c4ccc5[nH]cnc5c4)c[nH]3)N12 [Example 42, (3S,8aR)-3-(4 (1H-benzo[d]imidazol-5-yl)-1H-imidazol-2-yl)-7-(3-chloro-2-fluoro-6-(1H-tetrazol-1-yl)phenyl)-2,3,8,8a-tetrahydroindolizin-5(1H)-one]	4.6	1
O=C1C=C(c2c(-n3cnnn3)ccc(Cl)c2F)C[C@H]2CC[C@@H](c3nc(-c4ccc5[nH]ncc5c4)c[nH]3)N12 [Example 43, (3S,8aR)-3-(4-(1H-indazol-5-yl)-1H-imidazol-2-yl)-7-(3-chloro-2-fluoro-6-(1H-tetrazol-1-yl)phenyl)-2,3,8,8a-tetrahydroindolizin-5(1H)-one]	4	2.1
COC(=O)Nc1nccc(-c2cnc([C@@H]3CC[C@@H]4CC(c5c(-n6cnnn6)ccc(Cl)c5F)=CC(=O)N43)[nH]2)c1F [Example 44, Methyl(4-(2-((3S,8aR)-7-(3-chloro-2-fluoro-6-(1H-tetrazol-1-yl)phenyl)-5-oxo-1,2,3,5,8,8a-hexahydroindolizin-3-yl)-1H-imidazol-5-yl)-3-fluoropyridin-2-yl)carbamate]	11.4	1.8
COC(=O)c1nccc(-c2cnc([C@@H]3CC[C@@H]4CC(c5c(-n6cc(Cl)nn6)ccc(Cl)c5F)=CC(=O)N43)[nH]2)c1F [Example 50]	31.6	19.8
O=C1C=C(c2c(-n3cnnn3)ccc(Cl)c2F)C[C@H]2CC[C@@H](c3nc(-c4cccc5[nH]ncc45)c[nH]3)N12 [Example 51, (3S,8aR)-3-(4-(1H-indazol-4-yl)-1H-imidazol-2-yl)-7-(3-chloro-2-fluoro-6-(1H-tetrazol-1-yl)phenyl)-2,3,8,8a-tetrahydroindolizin-5(1H)-one]	4.4	3.8
COC(=O)c1nccc(-c2cnc([C@@H]3CC[C@@H]4CC(c5c(-n6cnnn6)ccc(Cl)c5F)=CC(=O)N43)[nH]2)c1F [Example 52, Methyl 4 [2-[(3S,8aR)-7-[3-chloro-2-fluoro-6-(tetrazol-1-yl)phenyl]-5-oxo-2,3,8,8a-tetrahydro-1H-indolizin-3-yl]-1H-imidazol-5-yl]-3-fluoro-pyridine-2-carboxylate]	9.5	3.2
O=C1C=C(c2c(-n3cnnn3)ccc(Cl)c2F)CC2CCC(c3ncc(-c4ccnc(-c5ccn[nH]5)c4)[nH]3)N12 (stereo not drawn) [Example 53, 3-(5-(2-(1H-pyrazol-5-yl)pyridin-4-yl)-1H-imidazol-2-yl)-7-(3-chloro-2-fluoro-6-(1H-tetrazol-1-yl)phenyl)-2,3,8,8a-tetrahydroindolizin-5(1H)-one]	2.8	1.7
O=C1C=C(c2cc(Cl)ccc2-n2cnnn2)C(F)(F)C2CC[C@@H](c3ncc(-c4ccnc(CO)c4F)[nH]3)N12 (stereo partly drawn) [Example 56, (3S)-7-(5-chloro-2-(1H-tetrazol-1-yl)phenyl)-8,8-difluoro-3-(5-(3-fluoro-2-(hydroxymethyl)pyridin-4-yl)-1H-imidazol-2-yl)-2,3,8,8a-tetrahydroindolizin-5(1H)-one]	59.2	35.2
Cc1ccc(-n2cnnn2)c(C2=CC(=O)N3[C@H](CC[C@H]3c3ncc(-c4ccnc(CO)c4F)[nH]3)C2)c1F [Example 57, (3S,8aR)-3-(5-(3-fluoro-2-(hydroxymethyl)pyridin-4-yl)-1H-imidazol-2-yl)-7-(2-fluoro-3-methyl-6-(1H-tetrazol-1-yl)phenyl)-2,3,8,8a-tetrahydroindolizin-5(1H)-one]	106	20.2
O=C(O)c1nccc(-c2cnc([C@@H]3CC[C@@H]4CC(c5c(-n6cc(C(F)(F)F)nn6)ccc(Cl)c5F)=CC(=O)N43)[nH]2)c1F [Example 58, 4-(2-((3S,8aR)-7-(3-chloro-2-fluoro-6-(4-(trifluoromethyl)-1H-1,2,3-triazol-1-yl)phenyl)-5-oxo-1,2,3,5,8,8a-hexahydroindolizin-3-yl)-1H-imidazol-5-yl)-3-fluoropicolinic acid]	49.2	0.7
O=C1C=C(c2c(-n3cnnn3)ccc(Cl)c2F)C[C@H]2CC[C@@H](c3ncc(-c4ccnc(COP(=O)(O)O)c4F)[nH]3)N12 [Example 61, (4-(2-((3S,8aR)-7-(3-chloro-2-fluoro-6-(1H-tetrazol-1-yl)phenyl)-5-oxo-1,2,3,5,8,8a-hexahydroindolizin-3-yl)-1H-imidazol-5-yl)-3-fluoropyridin-2-yl)methyl dihydrogen phosphate]	44.4	0.5
O=C1C=C(c2c(-n3cnnn3)ccc(Cl)c2F)C[C@H]2CC[C@@H](c3ncc(-c4cc[n+]([O-])c(CO)c4F)[nH]3)N12 [Example 65, 4-(2-((3S,8aR)-7-(3-chloro-2-fluoro-6-(1H-tetrazol-1-yl)phenyl)-5-oxo-1,2,3,5,8,8a-hexahydroindolizin-3-yl)-1H-imidazol-5-yl)-3-fluoro-2-(hydroxymethyl)pyridine 1-oxide]	420	45.4
O=C1C=C(c2c(-n3cc(C(F)(F)F)nn3)ccc(Cl)c2F)C[C@H]2CC[C@@H](c3ncc(-c4ccnc(CO)c4F)[nH]3)N12 [Example 67, (3S,8aR)-7-(3-chloro-2-fluoro-6-(4-(trifluoromethyl)-1H-1,2,3-triazol-1-yl)phenyl)-3-(5-(3-fluoro-2-(hydroxymethyl)pyridin-4-yl)-1H-imidazol-2-yl)-2,3,8,8a-tetrahydroindolizin-5(1H)-one]	85.7	10.7
Nc1ccnn1-c1nccc(-c2c[nH]c([C@@H]3CC[C@@H]4CC(c5c(-n6cnnn6)ccc(Cl)c5F)=CC(=O)N43)n2)c1F [Example 68]	58	30
Nc1ccc(-c2[nH]c([C@@H]3CC[C@@H]4CC(c5cc(Cl)ccc5-n5cnnn5)=CC(=O)N43)nc2F)c(F)n1 [Example 69, (3S,8aR)-3-(5-(6-amino-2-fluoropyridin-3-yl)-4-fluoro-1H-imidazol-2-yl)-7-(5-chloro-2-(1H-tetrazol-1-yl)phenyl)-2,3,8,8a-tetrahydroindolizin-5(1H)-one]	3.8	0.3
